Measurements reported in patent US20180326102A1, “SYSTEMS, METHODS, AND COMPOSITIONS FOR IMAGING ANDROGEN RECEPTOR AXIS ACTIVITY IN CARCINOMA, AND RELATED THERAPEUTIC COMPOSITIONS AND METHODS” (Memorial Sloan Kettering Cancer Center, priority 2015, published 2018).
Square brackets hold non-standard residues; d marks the D form. Peptide text beside a SMILES is read from it. * marks the point of attachment. dPhe(4-NHCONH2) = NC(=O)Nc1ccc(C[C@@H](N)C(=O)O)cc1; Dihydroorotyl(S) = O=C1C[C@@H](C(=O)*)NC(=O)N1; dPhe(4-Cl) = N[C@H](Cc1ccc(Cl)cc1)C(=O)O; Phe(4-NH2) = Nc1ccc(C[C@H](N)C(=O)O)cc1; d2Nal = N[C@H](Cc1ccc2ccccc2c1)C(=O)O; Lys(iPr) = CC(C)NCCCC[C@H](N)C(=O)O; d3Pal = N[C@H](Cc1cccnc1)C(=O)O

How the values were obtained:
Pb_KLK2×Hi-Myc mice = type: in vivo
Experimental: A final clinical simulation involved non-invasive imaging of the impact of different degrees of inhibition on AR activity in the tumor (intratumoral) and prostate itself (intraprostatic). Progression of disease was initially monitored in 14 Pb_KLK2 XHi-Myc mice using ^89Zr-11B6 PET. Thereafter, mice were randomized into 3 treatment groups: vehicle (n=4), castration (n=6), or castration plus Enzalutamide (n=4).
PET imaging experiments were conducted on a micro-PET Focus 120 scanner (Concorde Microsystems). In initial studies, mice (n=4) were administered formulations of ^89Zr-11B6 [3.7-5.55 MBq (100-150 μCi), 300, 100, 50, or 25 μg of protein, in 150 μL sterile saline for injection] through i.v. Tail-vein injection. Approximately 5 minutes before recording PET images, mice were anesthetized by inhalation of 1% to 2% isoflurane (Baxter Healthcare)/oxygen gas mixture and placed on the scanner bed. PET images were recorded at various time points between 1 and 344 hours post-injection. […] For all static images, scan time was adjusted to ensure between 15-25 million coincident events were recorded.
Site-directed mutagenesis of APLILSR to APLRTKR at positions […], -3, and -2 the zymogen sequence of KLK2 was performed using a Quick Change Lightning Mutagenesis Kit (Stratagene). […] Mice were monitored closely in accordance with IACUC-established guidelines and RARC animal protocol (#04-01-002).

VCaP = assay: 18F-FDHT imaging in VCaP bearing mouse; type: in vivo; settings: 1.5 h after administration
Experimental: The distribution at 1.5 h after administration in a representative VCaP (arrow) bearing mouse. ^18F-FDHT is a radiolabeled analog of the non-aromatizable dihydrotestosterone.

In the case of `CC(=O)N[C@H](Cc1ccc2ccccc2c1)C(=O)N[C@H](Cc1ccc(Cl)cc1)C(=O)N[C@H](Cc1cccnc1)C(=O)N[C@@H](CO)C(=O)N[C@@H](Cc1ccc(NC(=O)[C@@H]2CC(=O)NC(=O)N2)cc1)C(=O)N[C@H](Cc1ccc(NC(N)=O)cc1)C(=O)N[C@@H](CC(C)C)C(=O)N[C@@H](CCCCNC(C)C)C(=O)N1CCC[C@H]1C(=O)N[C@H](C)C(N)=O` [Degarelix] (Ac-[d2Nal][dPhe(4-Cl)][d3Pal]S[Phe(4-NH2)](Dihydroorotyl(S))[dPhe(4-NHCONH2)]L[Lys(iPr)]P[dA]-NH2), the “^89Zr-11B6 uptake (AR pathway readout) during GnRH antagonist therapy” value (Pb_KLK2×Hi-Myc mice; depot injections, androgen ablation for 2 months) is reported as “decreased following castration but reemerged at the end of the treatment period”.

In the case of `CNC(=O)c1ccc(N2C(=S)N(c3ccc(C#N)c(C(F)(F)F)c3)C(=O)C2(C)C)cc1F` [Enzalutamide], the “reactivation of ^89Zr-11B6 uptake (AR activity) after castration plus adjuvant androgen receptor blockade” value (Pb_KLK2×Hi-Myc mice; castration plus Enzalutamide, n=4) is reported as “not significant”.

With `CC12CCC(=O)CC1CCC1C2CCC2(C)C(O)C([18F])CC12` (stereo not drawn) [^18F-FDHT] the “Liver, bile and kidney uptake relative to tumor uptake” value (VCaP) was “equivalent to or exceeds tumor uptake”.
